The source of these data is patent publication US9040713B2, “Methods of managing blood sugar levels and compositions related thereto” (EMORY UNIVERSITY, priority 2010, dated 2015).

The test system of one assay is IGF-1R. Description: IGF-1R phosphorylation in cells (immunoblotting). Format: cell-based. As for the experimental part: (§1) (A) DDN and CSN activate IR and its downstream signaling in CHO-IR cells. […] The cell lysates were analyzed by immunoblotting with anti-phospho-IR antibodies, or immunoprecipitated by PY20 and analyzed using anti-IR and anti-IRS-1, respectively. (B) DDN and CSN induce IR phosphorylation in a dose-dependent manner. CHO-IR cells were treated with the small compounds at different concentrations for 15 min, and the IR phosphorylation was monitored by immunoprecipitation and immunoblotting. (C) DDN, CSN induce IR phosphorylation in a time-dependent manner. […] (D) DDN and CSN induce IR phosphorylation and its downstream signaling in a dose-dependent manner. […] (E) DDN and CSN cannot induce IGF-1R or EGFR phosphorylation. CHO-IGF-1R or HEK293 cells were treated with EGF (100 nM), IGF-1 (100 nM), DDN (10 μM) or CSN (10 μM) for 15 min. The cell lysates were analyzed by immunoblotting with anti-pIGF-1R and anti-pEGFR.
(§2) (A) Chemical structure of 4524-E7. (B) Effect of 4524-E7 and other 1,4-naphthoquinone derivatives on IR phosphorylation in CHO-IR cells. CHO-IR cells were cultured in 96-well plates and treated with 5 μM compounds for 15 min at 37 C. Cells were lysed, and IR phosphorylations were tested by ELISA. The IR phosphorylation activities of the tested compounds were expressed as a percentage of the vehicle. (C) 4524-E7 and 1,4-naphthoquinone derivates activate IR and its downstream signaling in CHO-IR cells. […] The cell lysates were analyzed by immunoblotting with various indicated antibodies. The phosphorylated IR was immunoprecipitated using PY20 and analyzed by immunoblotting with anti-IR13 antibody. […] The phosphorylation of each receptor was determined by Western blot using specific antibodies as indicated. (E) 4524-E7 activates IR through its ICD. Upper panel: Diagram of chimaeric receptors. Lower panel: His-tagged wild-type IR, IGFR-IR, IR-IGFR, and IR-EGFR constructs were transfected into CHO cells followed vehicle or 5 μM 4524-E7 treatment for 30 min. Then the cells were lysated and the transfected receptor fused to His tag were pulled down with Ni+ beads, followed by western blot against anti-p-Tyr and anti-His. The cell lysates were tested with anti-p-Akt and anti-Akt.
(§3) A cell-based ELISA assay was developed with an IR stably transfected Chinese Hamster Ovary (CHO-IR) cell line. The cells were seeded in a 96-well plate and treated with 10 μM (15 min) compounds. The cell lysates were subjected to the sandwich ELISA using immobilized anti-phosphotyrosine antibody and anti-IR antibody. […] Among the positive hits, 1,4-naphthoquinone compounds were identified that can selectively activate IR but not IGF-1R (FIG. 1A). […] Total IR tyrosine phosphorylation was further confirmed by immunoprecipitation using anti-phosphotyrosine (PY20) antibody (FIG. 2A, 3rd panel). […]
On the technique in general: Immunoblotting shows a protein as a band on a membrane.

In a further assay the test system is EGFR. Put plainly: EGFR phosphorylation in cells (immunoblotting). Format: cell-based. The method, then: as §1, §2, §3
The mark [1] stands for this setting: differentiated 3T3-L1 adipocytes.

In the case of `O=C1c2ccccc2C(=O)C2SC(Nc3ccc(Cl)cc3)=NC12` (stereo not drawn) [4524-E7, 2-((4-chlorophenyl)amino)naphtho[2,3-d]thiazole-4,9(3aH,9aH)-dione], the IGF-1R activation entry in the assay with IGF-1R (IGF-1R-transfected HEK293 cells, 5 μM) is reported as “not any other RTKs”; with IGF-1R (setting [1]), “neither IGF-1R nor EGFR was activated”. The EGFR activation entry with EGFR (EGFR-transfected HEK293 cells, 5 μM) is “not any other RTKs”; in the assay with EGFR (setting [1]), “neither IGF-1R nor EGFR was activated”.

For the molecule `CC(=O)Oc1ccc(OC(C)=O)c2c1C(=O)C(Cl)=C(Cl)C2=O` [DDN, 5,8-diacetyloxy-2,3-dichloro-1,4-naphthoquinone], the IGF-1R activation entry with IGF-1R (CHO-IGF-1R cells, 10 μM, 15 min) is given as “Neither IGF-1R nor EGFR was activated”. Further, in the assay on EGFR (HEK293 cells, 10 μM, 15 min), the EGFR activation entry was “Neither IGF-1R nor EGFR was activated”.
